In the assay the target is Coagulation factor XI (Homo sapiens, UniProt P03951). Briefly: In Vitro Assay: The effectiveness of compounds of the present invention as inhibitors of the coagulation Factors XIa, VIIa, IXa, Xa, XIIa, plasma kallikrein or thrombin, can be determined using a relevant purified serine protease, respectively, and an appropriate synthetic substrate. The rate of hydrolysis of the chromogenic or fluorogenic substrate by the relevant serine protease was measured both in the absence and presence of compounds of the present invention. […] A decrease in the rate of absorbance or fluorescence change in the presence of inhibitor is indicative of enzyme inhibition. Such methods are known to one skilled in the art.
Coagulation factor XI, sequence (P03951 19-387 limits assumed): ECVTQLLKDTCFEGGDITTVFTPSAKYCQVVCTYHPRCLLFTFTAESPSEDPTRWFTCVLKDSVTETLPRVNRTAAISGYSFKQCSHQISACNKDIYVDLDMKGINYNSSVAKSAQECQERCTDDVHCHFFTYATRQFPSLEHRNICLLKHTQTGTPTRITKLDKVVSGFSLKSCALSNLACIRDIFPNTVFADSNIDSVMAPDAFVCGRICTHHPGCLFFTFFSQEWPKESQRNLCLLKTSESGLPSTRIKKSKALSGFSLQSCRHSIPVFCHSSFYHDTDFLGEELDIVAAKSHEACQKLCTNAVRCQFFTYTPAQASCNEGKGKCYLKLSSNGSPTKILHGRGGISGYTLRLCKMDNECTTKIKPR
Coagulation factor XI, sequence (P03951 388-625 limits assumed): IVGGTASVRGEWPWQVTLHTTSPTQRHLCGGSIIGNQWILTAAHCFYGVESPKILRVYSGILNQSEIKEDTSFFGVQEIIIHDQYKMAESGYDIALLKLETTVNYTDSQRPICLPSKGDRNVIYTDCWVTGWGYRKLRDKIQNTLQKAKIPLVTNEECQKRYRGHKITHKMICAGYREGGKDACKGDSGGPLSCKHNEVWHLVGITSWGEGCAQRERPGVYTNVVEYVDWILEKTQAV

Usually Ki stands for a dissociation constant, usually derived from enzyme kinetics or from competition with a known ligand. On to `O=C(/C=C/c1cc(Cl)ccc1-n1cnnn1)N[C@H]1CCCCC(=O)Nc2cc3[nH]ncc3cc2-c2c[nH]c1n2`, for which the Ki was determined as 183 nM.

Values taken from ChEMBL document CHEMBL3638593, “Macrocycles as factor XIa inhibitors” (2015).
